Measurements as given in PMC9126795 (eBioMedicine, 2022).
Read-outs that look alike come from different tables or passages of the source.

Tested on: patients with HCV and HBV liver cirrhosis
Assay type: in vivo, human
[1] = Phase 1 140 mg/m^2/4h (n = 3), Grade 1-2
[2] = Phase 1 140 mg/m^2/4h (n = 3), Grade 3
[3] = Phase 1 280 mg/m^2/4h (n = 6), Grade 1-2
[4] = Phase 1 280 mg/m^2/4h (n = 6), Grade 3
[5] = Phase 1 380 mg/m^2/4h (n = 6), Grade 1-2
[6] = Phase 1 380 mg/m^2/4h (n = 6), Grade 3

PRI-724
1 (33%): AE: Hepatic function abnormal [1] | AE: Nasopharyngitis [1]
minor and transient: Liver dysfunction at the recommended dose (Level 2, 280 mg/m^2/4 h)
1 (17%): AE: Ascites [3] | AE: Diarrhea [3] | AE: Dyspepsia [3] | AE: Headache [3] | AE: Hepatic function abnormal [3] | AE: Hypertension [3] | AE: Insomnia [3] | AE: Nasopharyngitis [3] | AE: Pruritus [3] | AE: Puncture site pain [3] | AE: Diarrhea [4] | Laboratory abnormality: Alanine aminotransferase increased [4] | Laboratory abnormality: Aspartate aminotransferase increased [4] | AE: Ascites [5] | AE: Decreased appetite [5] | AE: Headache [5] | AE: Insomnia [5] | AE: Vomiting [5] | Laboratory abnormality: Aspartate aminotransferase increased [5] | Laboratory abnormality: Blood creatine phosphokinase increased [5] | Laboratory abnormality: C-reactive protein increased [5]
0: AE: Anaemia [1] | AE: Ascites [1] | AE: Decreased appetite [1] | AE: Diarrhea [1] | AE: Dyspepsia [1] | AE: Erythema [1] | AE: Headache [1] | AE: Hypertension [1] | AE: Hyperuricaemia [1] | AE: Insomnia [1] | AE: Muscle spasms [1] | AE: Nausea [1] | AE: Pruritus [1] | AE: Puncture site pain [1] | AE: Pyrexia [1] | AE: Spontaneous bacterial peritonitis [1] | AE: Viral infection [1] | AE: Vomiting [1] | Laboratory abnormality: Alanine aminotransferase increased [1] | Laboratory abnormality: Aspartate aminotransferase increased [1] | Laboratory abnormality: Blood creatine phosphokinase increased [1] | Laboratory abnormality: Blood creatinine increased [1] | Laboratory abnormality: C-reactive protein increased [1] | SAE: Anaemia [1] | SAE: Hepatic function abnormal [1] | SAE: Spontaneous bacterial peritonitis [1] | SAE: Viral infection [1] | AE: Anaemia [2] | AE: Ascites [2] | AE: Decreased appetite [2] | AE: Diarrhea [2] | AE: Dyspepsia [2] | AE: Erythema [2] | AE: Headache [2] | AE: Hepatic function abnormal [2] | AE: Hypertension [2] | AE: Hyperuricaemia [2] | AE: Insomnia [2] | AE: Muscle spasms [2] | AE: Nasopharyngitis [2] | AE: Nausea [2] | AE: Pruritus [2] | AE: Puncture site pain [2] | AE: Pyrexia [2] | AE: Spontaneous bacterial peritonitis [2] | AE: Viral infection [2] | AE: Vomiting [2] | Laboratory abnormality: Alanine aminotransferase increased [2] | Laboratory abnormality: Aspartate aminotransferase increased [2] | Laboratory abnormality: Blood creatine phosphokinase increased [2] | Laboratory abnormality: Blood creatinine increased [2] | Laboratory abnormality: C-reactive protein increased [2] | SAE: Anaemia [2] | SAE: Hepatic function abnormal [2] | SAE: Spontaneous bacterial peritonitis [2] | SAE: Viral infection [2] | AE: Anaemia [3] | AE: Erythema [3] | AE: Hyperuricaemia [3] | AE: Pyrexia [3] | AE: Spontaneous bacterial peritonitis [3] | AE: Viral infection [3] | Laboratory abnormality: Alanine aminotransferase increased [3] | Laboratory abnormality: Aspartate aminotransferase increased [3] | Laboratory abnormality: Blood creatine phosphokinase increased [3] | Laboratory abnormality: Blood creatinine increased [3] | Laboratory abnormality: C-reactive protein increased [3] | SAE: Anaemia [3] | SAE: Hepatic function abnormal [3] | SAE: Spontaneous bacterial peritonitis [3] | SAE: Viral infection [3] | AE: Anaemia [4] | AE: Ascites [4] | AE: Decreased appetite [4] | AE: Dyspepsia [4] | AE: Erythema [4] | AE: Headache [4] | AE: Hepatic function abnormal [4] | AE: Hypertension [4] | AE: Hyperuricaemia [4] | AE: Insomnia [4] | AE: Muscle spasms [4] | AE: Nasopharyngitis [4] | AE: Nausea [4] | AE: Pruritus [4] | AE: Puncture site pain [4] | AE: Pyrexia [4] | AE: Spontaneous bacterial peritonitis [4] | AE: Viral infection [4] | AE: Vomiting [4] | Laboratory abnormality: Blood creatine phosphokinase increased [4] | Laboratory abnormality: Blood creatinine increased [4] | Laboratory abnormality: C-reactive protein increased [4] | SAE: Anaemia [4] | SAE: Hepatic function abnormal [4] | SAE: Spontaneous bacterial peritonitis [4] | SAE: Viral infection [4] | AE: Anaemia [5] | AE: Dyspepsia [5] | AE: Erythema [5] | AE: Hepatic function abnormal [5] | AE: Hypertension [5] | AE: Hyperuricaemia [5] | AE: Muscle spasms [5] | AE: Nasopharyngitis [5] | AE: Pruritus [5] | AE: Puncture site pain [5] | AE: Spontaneous bacterial peritonitis [5] | AE: Viral infection [5] | Laboratory abnormality: Alanine aminotransferase increased [5] | Laboratory abnormality: Blood creatinine increased [5] | SAE: Anaemia [5] | SAE: Hepatic function abnormal [5] | SAE: Spontaneous bacterial peritonitis [5] | SAE: Viral infection [5] | AE: Anaemia [6] | AE: Ascites [6] | AE: Decreased appetite [6]
2 (33%): AE: Decreased appetite [3] | AE: Muscle spasms [3] | AE: Nausea [3] | AE: Vomiting [3] | AE: Diarrhea [5] | AE: Nausea [5] | AE: Pyrexia [5]
